Measurements taken from publication PMC5201331, “Subchronic Toxicities of HZ1006, a Hydroxamate-Based Histone Deacetylase Inhibitor, in Beagle Dogs and Sprague-Dawley Rats” (International Journal of Environmental Research and Public …, 2016).

How the values were obtained:
SD rats [1] = experiment: Subchronic toxicity test in SD rats: organ weights; type: in vivo, Sprague-Dawley (SD) rats; settings: for Adrenal gland absolute weight / Brain relative weight: female rats; for Kidney relative weight / Testis absolute weight: male rats
Method: The rats that were judged suitable for the subchronic toxicity study were randomly divided into four groups (10 rats/sex/group). The rats received the test sample by gavage once daily for 28 days. HZ1006 was administered to the rats at doses of 120, 60, 20 and 0 (control) mg/kg, and the dosage volume was 5 mL/kg. Half of the 80 rats (half male and half female) were selected randomly according to body weight and dissected at d28. The remaining rats were dissected at […]. After euthanasia, the following organs or tissues were isolated from the dogs and rats: skin, abnormal lesions, spleen, mammary glands, jejunum, pancreas, ileum, duodenum, stomach, colon, cecum, lymph nodes, mesenteric salivary glands, liver, submandibular lymph nodes, thymus, sternum, lungs, heart, esophagus, trachea, tongue, thyroid with parathyroid gland, sciatic nerve, aorta, femurs, skeletal muscle, pituitary gland, brain, kidneys, eyes, urinary bladder, adrenal glands, uterus, ovaries, testes, epididymis and prostate. The weights of the animal organs, such as the liver, spleen, heart, thymus, brain, lungs, adrenal glands, kidneys, uterus, ovaries, epididymis and testes, were tested using an electronic balance. The organs or tissues were fixed using 10% neutral buffered formalin and were then gradient dehydrated, embedded, sectioned, and stained with routine hematoxylin-eosin prior to histopathological observations.

SD rats [2] = experiment: Subchronic toxicity test in SD rats: hematology; type: in vivo, Sprague-Dawley (SD) rats; settings: for APTT / FIB / Lym / Neu / WBC: female rats; for RET: male rats
Method: The rats that were judged suitable for the subchronic toxicity study were randomly divided into four groups (10 rats/sex/group). The rats received the test sample by gavage once daily for 28 days. HZ1006 was administered to the rats at doses of 120, 60, 20 and 0 (control) mg/kg, and the dosage volume was 5 mL/kg. Half of the 80 rats (half male and half female) were selected randomly according to body weight and dissected at d28. The remaining rats were dissected at […]. The following indexes were examined for the dogs used in the study, twice during the pre-dosage period and on d14, d28 and […]. The following parameters were evaluated on d28 and […] for the rats in the study: Blood samples of the animals were collected in tubes containing ethylenediamine tetraacetic acid (EDTA) and tested using an ADVIA2120 Hematology Autoanalyzer (Bayer, Leverkusen, Germany). The following indexes were examined: hemoglobin concentration (Hb), red blood cell count (RBC),mean corpuscular volume (MCV), hematocrit (HCT), mean corpuscular hemoglobin concentration (MCHC), mean corpuscular hemoglobin (MCH), white blood cell count (WBC), platelet count (Plt), WBC differential counts [neutrophilcyte (Neu), eosinophilic granulocyte (Eos), basophilic leukocyte (Bas), lymphocyte (Lym), and monocyte (Mon)] and reticulocytes (Ret). The serum coagulation times of the blood samples (1.8-mL samples were mixed with 0.2 mL sodium citrate), including prothrombin time (PT), fibrinogen (FIB), activated partial thromboplastin time (APTT), and thrombin time (TT), were tested using an MC10 plus Blood Coagulation Analyzer from Shanghai San Jose Medical Products Co., Ltd. (Shanghai, China).

[3] = 20 mg/kg oral daily, d42 (recovery)
[4] = 60 mg/kg oral daily, d42 (recovery)
[5] = 120 mg/kg oral daily, d42 (recovery)

In the case of `CCCCCCCNc1cc(/C=C/C(=O)NO)ccc1OCCN(CC)CC` [HZ1006], the “Adrenal gland absolute weight” value (SD rats [1]; 20 mg/kg oral daily, d28) is reported as 0.081 ± 0.005 g, the Brain relative weight (SD rats [1]; 20 mg/kg oral daily, d28) is reported as 0.728 ± 0.047 g/100 g and the “Adrenal gland absolute weight” value (SD rats [1]; [3]) is reported as 0.072 ± 0.008 g. For the same molecule, the Brain relative weight (SD rats [1]; [3]) was 0.768 ± 0.020 g/100 g, the “Adrenal gland absolute weight” value (SD rats [1]; 60 mg/kg oral daily, d28) was 0.068 ± 0.003 g and the Brain relative weight (SD rats [1]; 60 mg/kg oral daily, d28) was 0.799 ± 0.062 g/100 g. For the same molecule, the “Adrenal gland absolute weight” value (SD rats [1]; [4]) was 0.071 ± 0.012 g, the Brain relative weight (SD rats [1]; [4]) was 0.768 ± 0.068 g/100 g and the “Adrenal gland absolute weight” value (SD rats [1]; 120 mg/kg oral daily, d28) was 0.066 ± 0.008 g. The Brain relative weight (SD rats [1]; 120 mg/kg oral daily, d28) was 0.834 ± 0.042 g/100 g, the “Adrenal gland absolute weight” value (SD rats [1]; [5]) was 0.069 ± 0.011 g and the Brain relative weight (SD rats [1]; [5]) was 0.745 ± 0.089 g/100 g. For the same molecule, the Kidney relative weight (SD rats [1]; 20 mg/kg oral daily, d28) was 0.707 ± 0.024 g/100 g, the Testis absolute weight (SD rats [1]; 20 mg/kg oral daily, d28) was 2.707 ± 0.090 g and the Kidney relative weight (SD rats [1]; [3]) was 0.693 ± 0.033 g/100 g. It also gave a Testis absolute weight (SD rats [1]; [3]) of 2.798 ± 0.112 g, a Kidney relative weight (SD rats [1]; 60 mg/kg oral daily, d28) of 0.705 ± 0.039 g/100 g and a Testis absolute weight (SD rats [1]; 60 mg/kg oral daily, d28) of 2.624 ± 0.170 g. It also gave a Kidney relative weight (SD rats [1]; [4]) of 0.687 ± 0.020 g/100 g, a Testis absolute weight (SD rats [1]; [4]) of 2.787 ± 0.097 g and a Kidney relative weight (SD rats [1]; 120 mg/kg oral daily, d28) of 0.673 ± 0.023 g/100 g. It also gave a Testis absolute weight (SD rats [1]; 120 mg/kg oral daily, d28) of 2.666 ± 0.115 g, a Kidney relative weight (SD rats [1]; [5]) of 0.624 ± 0.053 g/100 g and a Testis absolute weight (SD rats [1]; [5]) of 2.723 ± 0.161 g. For the same molecule, the APTT (SD rats [2]; 20 mg/kg oral daily, d28) was 24.3 ± 3.5 s, the FIB (SD rats [2]; 20 mg/kg oral daily, d28) was 1.87 ± 0.09 g/L and the Lym (SD rats [2]; 20 mg/kg oral daily, d28) was 88.38 ± 1.68%. The Neu (SD rats [2]; 20 mg/kg oral daily, d28) was 8.70 ± 1.72%, the WBC (SD rats [2]; 20 mg/kg oral daily, d28) was 3.17 ± 1.23 ×10^9·L^−1 and the APTT (SD rats [2]; [3]) was 22.2 ± 3.0 s. For the same molecule, the FIB (SD rats [2]; [3]) was 1.62 ± 0.17 g/L, the Lym (SD rats [2]; [3]) was 85.40 ± 3.85% and the Neu (SD rats [2]; [3]) was 11.58 ± 4.04%. For the same molecule, the WBC (SD rats [2]; [3]) was 2.68 ± 0.63 ×10^9·L^−1, the APTT (SD rats [2]; 60 mg/kg oral daily, d28) was 23.0 ± 2.4 s and the FIB (SD rats [2]; 60 mg/kg oral daily, d28) was 1.89 ± 0.06 g/L. For the same molecule, the Lym (SD rats [2]; 60 mg/kg oral daily, d28) was 84.70 ± 5.45%, the Neu (SD rats [2]; 60 mg/kg oral daily, d28) was 12.08 ± 4.77% and the WBC (SD rats [2]; 60 mg/kg oral daily, d28) was 2.82 ± 0.60 ×10^9·L^−1. For the same molecule, the APTT (SD rats [2]; [4]) was 25.2 ± 1.3 s, the FIB (SD rats [2]; [4]) was 1.62 ± 0.18 g/L and the Lym (SD rats [2]; [4]) was 85.36 ± 6.93%. For the same molecule, the Neu (SD rats [2]; [4]) was 12.06 ± 6.70%, the WBC (SD rats [2]; [4]) was 2.53 ± 0.60 ×10^9·L^−1 and the APTT (SD rats [2]; 120 mg/kg oral daily, d28) was 22.6 ± 2.4 s. The FIB (SD rats [2]; 120 mg/kg oral daily, d28) was 2.01 ± 0.40 g/L, the Lym (SD rats [2]; 120 mg/kg oral daily, d28) was 77.22 ± 8.78% and the Neu (SD rats [2]; 120 mg/kg oral daily, d28) was 19.28 ± 8.26%. The WBC (SD rats [2]; 120 mg/kg oral daily, d28) was 3.95 ± 0.77 ×10^9·L^−1, the APTT (SD rats [2]; [5]) was 25.2 ± 1.6 s and the FIB (SD rats [2]; [5]) was 1.85 ± 0.12 g/L. The Lym (SD rats [2]; [5]) was 85.88 ± 1.85%, the Neu (SD rats [2]; [5]) was 10.76 ± 1.81% and the WBC (SD rats [2]; [5]) was 3.00 ± 0.43 ×10^9·L^−1. It also gave an RET (SD rats [2]; 20 mg/kg oral daily, d28) of 1.88 ± 0.32%, an RET (SD rats [2]; [3]) of 1.92 ± 0.31% and an RET (SD rats [2]; 60 mg/kg oral daily, d28) of 1.43 ± 0.22%. It also gave an RET (SD rats [2]; [4]) of 1.82 ± 0.43%, an RET (SD rats [2]; 120 mg/kg oral daily, d28) of 2.04 ± 0.31 % and an RET (SD rats [2]; [5]) of 2.16 ± 0.22%.
